From PubChem BioAssay AID743160 (Sanford-Burnham Center for Chemical Genomics, 2013) come the findings set out here.

As a reminder, the IC50 is the concentration at which inhibition is half-maximal.

The structures appear in SMILES notation. Activity calls are given as the source filed them. No rule for the calls is given here.

The assay relates to H9c2 cells, DAPI nuclear count (cytotoxicity), overnight. In words: DAPI-stained nuclei loss in H9c2 cells – cell-based, DAPI fluorescence, cytotoxicity control for triacylglycerol accumulation inhibitor project, SAR follow-up (AID 743160).

`CCCCSc1nc2ccc(Nc3nc(N4CCOCC4)nc(N4CCOCC4)n3)cc2s1`: the IC50 was > 50 µM (inactive).

For the compound `CCCCN1Cc2cccc(C(=O)Nc3cccc(-c4nc5ccccc5[nH]4)c3)c2C1=O`, the IC50 is > 50 µM (inactive).

Regarding `COCCN1Cc2cccc(C(=O)Nc3nc4ccccc4n3C)c2C1=O`, the IC50 is > 50 µM (inactive).

For `CCOC(=O)c1cc(-c2ccccc2)sc1NC(=O)C(C)N1C(=O)NC(C)(c2ccc(Cl)cc2)C1=O` (stereo unspecified), the IC50 is > 50 µM (inactive).

In the case of `Cc1ccc(-c2csc(NC(=O)CSc3nc4ccccc4c(=O)n3CCCN(C)C)n2)cc1`, the IC50 is > 50 µM (inactive).

As to `COCCN1Cc2cccc(C(=O)NCc3cccc(N(C)C)c3)c2C1=O`, the IC50 was > 50 µM (inactive).

As for `O=C(Nc1cccc2ncccc12)c1ccc(Cl)cc1`, the IC50 is > 50 µM (inactive).

Turning to `O=C(Nc1cccc(-c2nc3ccccc3[nH]2)c1)c1cccc2c1C(=O)N(CCN1CCOCC1)C2`, the IC50 is > 50 µM (inactive).

Take `COc1ccccc1CCN1Cc2cccc(C(=O)Nc3cccc(-c4nc5ccccc5[nH]4)c3)c2C1=O`: the IC50 is > 50 µM (inactive).

Turning to `CCOc1ccccc1NC(=O)c1cccc(NC(=O)c2ccco2)c1`, the IC50 is 23.2 µM (inactive).

With `Cc1ccccc1NC(=O)CSc1nc(Nc2ccccc2)nc(N2CCOCC2)n1`, the IC50 was > 50 µM (inactive).

Consider `O=C(CSc1nc2ccc(Nc3nc(N4CCOCC4)nc(N4CCOCC4)n3)cc2s1)NCc1ccco1`, for which the IC50 is > 50 µM (inactive).

For `O=C1COc2ccc(C(=O)CSc3nc4ccccc4c(=O)n3-c3ccc(Cl)c(Cl)c3)cc2N1`, the IC50 is 7.69 µM (inactive).

Turning to `COCCN1Cc2cccc(C(=O)Nc3cccc(-c4nc5ccc(F)cc5[nH]4)c3)c2C1=O`, the IC50 is > 50 µM (inactive).

Take `COCCn1cnc2cccc(C(=O)Nc3cccc(-c4nc5ccccc5[nH]4)c3)c2c1=O`: the IC50 is > 50 µM (inactive).

Regarding `Cc1ccccc1OCCNc1cc(N2CC(C)NC(C)C2)ccc1[N+](=O)[O-]` (stereo unspecified), the IC50 was > 50 µM (inactive).

Consider `COCCN1Cc2cccc(C(=O)Nc3cccc(-c4nc5ccccc5[nH]4)c3)c2C1=O`, for which the IC50 is > 50 µM (inactive).

Regarding `COc1cc(NC(=O)c2cc([N+](=O)[O-])ccc2NC(=O)CN2CCN(c3ccccn3)CC2)cc(OC)c1`, the IC50 is > 50 µM (inactive).

Turning to `COCCN1Cc2cccc(C(=O)Nc3cccc(-c4nc5ccc(C(F)(F)F)cc5[nH]4)c3)c2C1=O`, the IC50 is > 50 µM (inactive).

Regarding `O=C(Nc1cccc(-c2nc3ccccc3[nH]2)c1)c1cccc2c1C(=O)N(CCOc1ccccc1)C2`, the IC50 is > 50 µM (inactive).

As for `CCOC(=O)c1cccc(NC(=O)c2cccc3c2C(=O)N(CCOC)C3)c1`, the IC50 is > 50 µM (inactive).

`CCOc1ccc(NC(=O)CN(C)C(=O)c2cc(-c3ccc(OC)cc3)nc3ccccc23)cc1OCC`: the IC50 is > 50 µM (inactive).

Regarding `CCC(C)(C)NC(=O)C(c1ccc(C)cc1)N(Cc1ccco1)C(=O)CCC(=O)Nc1nccs1` (stereo unspecified), the IC50 was > 50 µM (inactive).

In the case of `O=C(CCC(=O)N1CCOc2ccc(Cl)cc21)NCCCN1CCC(Cc2ccccc2)CC1`, the IC50 is 13.5 µM (inactive).

Take `COCCN1Cc2cccc(C(=O)Nc3cccnc3)c2C1=O`: the IC50 was > 50 µM (inactive).

Consider `Cc1cccc2c(C(=O)N3CCN(c4ccccc4)CC3)cc(-c3ccncc3)nc12`, for which the IC50 was > 50 µM (inactive).

Regarding `Cc1cc(C)c2nc(-c3ccncc3)cc(C(=O)N3CCN(Cc4ccccc4Cl)CC3)c2c1`, the IC50 was 23.6 µM (inactive).

Consider `COc1ccc(CCN2Cc3cccc(C(=O)Nc4cccc(-c5nc6ccccc6[nH]5)c4)c3C2=O)cc1OC`, for which the IC50 is > 50 µM (inactive).

As for `O=[N+]([O-])c1ccc(Nc2nc(NC3CCCCC3)nc(N3CCCC3)n2)cc1`, the IC50 was 11 µM (inactive).

Take `COCCCN1Cc2cccc(C(=O)Nc3cccc(-c4nc5ccccc5[nH]4)c3)c2C1=O`: the IC50 was > 50 µM (inactive).

With `CCn1c(SCC(=O)Nc2nc(-c3ccc(C)cc3)cs2)nnc1-c1ccccc1O`, the IC50 was 8.1 µM (inactive).

Consider `O=C(CSc1nc2ccc(Nc3nc(N4CCOCC4)nc(N4CCOCC4)n3)cc2s1)Nc1ccccc1Cl`, for which the IC50 was 27.8 µM (inactive).

In the case of `CN(C)CCCn1c(SCC(=O)Nc2nc(-c3cccc(Br)c3)cs2)nc2ccccc2c1=O`, the IC50 is 27.1 µM (inactive).

For the compound `CSCCCN1Cc2cccc(C(=O)Nc3cccc(-c4nc5ccccc5[nH]4)c3)c2C1=O`, the IC50 was > 50 µM (inactive).

On to `CCCC(=O)Nc1nc2ccc(NC(=O)c3c(F)c(F)c(OC)c(F)c3F)cc2s1`, for which the IC50 is > 50 µM (inactive).

As to `CCN(CC)S(=O)(=O)c1ccc(N2CCOCC2)c(NC(=O)c2[nH]c(C)c(C(C)=O)c2C)c1`, the IC50 was > 50 µM (inactive).

Take `CCCC(=O)Nc1nc2ccc(NC(=O)c3ccccc3F)cc2s1`: the IC50 was > 50 µM (inactive).

Turning to `COCCN1Cc2cccc(C(=O)Nc3cccc(C(=O)Nc4ccccc4OC)c3)c2C1=O`, the IC50 is > 50 µM (inactive).

As to `COCCN1Cc2cccc(C(=O)Nc3cccc(-c4nc5ccc(C)cc5[nH]4)c3)c2C1=O`, the IC50 is > 50 µM (inactive).

As for `O=C(Nc1cccc(-c2nc3ccccc3[nH]2)c1)c1cccc2c1C(=O)N(CC1CC1)C2`, the IC50 was > 50 µM (inactive).

In the case of `COCCN1Cc2cccc(C(=O)Nc3cccc(-c4nc5ccc(Cl)cc5[nH]4)c3)c2C1=O`, the IC50 is > 50 µM (inactive).

Turning to `O=C(Nc1cccc(-c2nc3ccccc3[nH]2)c1)c1cccc2c1C(=O)N(CCc1ccccc1)C2`, the IC50 is > 50 µM (inactive).

For the compound `COc1cccc(-c2cc(C(=O)Nc3ccc(N(C)C(C)=O)cc3)c3cc(Br)ccc3n2)c1`, the IC50 was > 50 µM (inactive).

`Cc1ccc(-c2nc(NC(=O)c3cc(C(C)(C)C)nn3C)sc2C)cc1Cl`: the IC50 was > 50 µM (inactive).

Consider `Cc1ccc(Nc2nc(OC(C(F)(F)F)C(F)(F)F)nc(N3CCOCC3)n2)cc1`, for which the IC50 was > 50 µM (inactive).

In the case of `CCOCCN1Cc2cccc(C(=O)Nc3cccc(-c4nc5ccccc5[nH]4)c3)c2C1=O`, the IC50 was > 50 µM (inactive).

Consider `Cc1ccccc1NC(=O)CSc1nc2ccc(Nc3nc(N4CCOCC4)nc(N4CCOCC4)n3)cc2s1`, for which the IC50 was 40 µM (inactive).

With `COc1cc2c(cc1OC)C(C)N(C(=O)c1cc3c(C)cc(C)cc3[nH]1)CC2` (stereo unspecified), the IC50 is > 50 µM (inactive).

Take `COCCN1Cc2cccc(C(=O)Nc3cccc(C(=O)Nc4ccccc4)c3)c2C1=O`: the IC50 is > 50 µM (inactive).

`CCC(C)(C)NC(=O)C(c1ccc(OC)cc1)N(Cc1cccs1)C(=O)CCC(=O)Nc1cc(C)on1` (stereo unspecified): the IC50 is > 50 µM (inactive).

Take `COCCN1Cc2cccc(C(=O)Nc3nc4ccccc4[nH]3)c2C1=O`: the IC50 is > 50 µM (inactive).
